# Source: patent publication US20250145665A1, “MACROCYCLIC PEPTIDES USEFUL AS MODULATORS OF TNF ALPHA” (Bristol-Myers Squibb Company, priority 2023, published 2025)
# Starred links: 1 amine or outer side, 2 acyl side, 3 side chain; linkers in the order of their positions; H or OH if unused. Positions of bridges follow the written chain, without caps; N, C: chain ends. Non-standard residues stand in square brackets, D forms with d. Residues, ends and D or L forms follow the SMILES beside them. Bip(4'-COOH) = N[C@@H](Cc1ccc(-c2ccc(C(=O)O)cc2)cc1)C(=O)O; Bip(4'-NHAc) = CC(=O)Nc1ccc(-c2ccc(C[C@H](N)C(=O)O)cc2)cc1; Phe(4-(4-pyridyl)) = N[C@@H](Cc1ccc(-c2ccncc2)cc1)C(=O)O; Phe(4-(3-Py)) = N[C@@H](Cc1ccc(-c2cccnc2)cc1)C(=O)O; Pro(trans-4-Ph) = O=C(O)[C@@H]1C[C@@H](c2ccccc2)CN1; Pro(cis-4-Ph) = O=C(O)[C@@H]1C[C@H](c2ccccc2)CN1; Ala(morpholin-4-yl) = N[C@@H](CN1CCOCC1)C(=O)O; Bip = N[C@@H](Cc1ccc(-c2ccccc2)cc1)C(=O)O; X82 = C[C@@]1(C(=O)[*:2])CCN1[*:1]; 4Pal = N[C@@H](Cc1ccncc1)C(=O)O; Sar = CNCC(=O)O
# Molecular target: TNFα (Homo sapiens, UniProt P01375)
# Test: TNF-Induced HEK-Blue Assay
# Format: cell-based
# Conditions: HEK-Blue-CD40L cells, NF-kB-driven secreted alkaline phosphatase reporter; TNFα 0.5 ng/ml; 18 h; read-out: TNF induced HEK-Blue assay IC50 value
# Sequence of TNFα (P01375 77-233 limits assumed): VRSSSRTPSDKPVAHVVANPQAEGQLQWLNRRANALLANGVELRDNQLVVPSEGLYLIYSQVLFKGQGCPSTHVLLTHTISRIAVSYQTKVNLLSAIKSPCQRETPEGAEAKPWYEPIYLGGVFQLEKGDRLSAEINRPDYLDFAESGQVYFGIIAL
row,Structure (SMILES),IC50
1,CC(C)[C@@H]1NC(=O)[C@H](CCCNC(=N)N)NC(=O)[C@H](C(C)C)NC(=O)[C@@H]2CCCN2C(=O)[C@H](C(C)C)NC(=O)[C@H](CCCNC(=N)N)NC(=O)[C@H](CC(=O)O)NC(=O)[C@@H]2CCCN2C(=O)CN(C)C(=O)[C@H](Cc2ccc(-c3ccccc3)cc2)NC(=O)[C@H](Cc2ccncc2)NC(=O)[C@H](CN2CCOCC2)NC(=O)CSC[C@@H](C(=O)NCC(N)=O)NC1=O [Example 86] ({CH2CO}-[Ala(morpholin-4-yl)][4Pal][Bip][Sar]PDRVPVRVCG-NH2; thioether N-13),50 to 200 nM
2,CC(C)[C@@H]1NC(=O)[C@H](CCCNC(=N)N)NC(=O)[C@H](C(C)C)NC(=O)[C@@H]2CCCN2C(=O)[C@H](C(C)C)NC(=O)[C@H](CCCNC(=N)N)NC(=O)[C@H](CC(=O)O)NC(=O)[C@@H]2CCCN2C(=O)CN(C)C(=O)[C@H](Cc2ccc(-c3ccccc3)cc2)NC(=O)[C@H](Cc2ccc(-c3ccncc3)cc2)NC(=O)[C@H](CN2CCOCC2)NC(=O)CSC[C@@H](C(=O)NCC(N)=O)NC1=O [Example 87] ({CH2CO}-[Ala(morpholin-4-yl)][Phe(4-(4-pyridyl))][Bip][Sar]PDRVPVRVCG-NH2; thioether N-13),50 to 200 nM
3,CC(C)[C@@H]1NC(=O)[C@H](CCCNC(=N)N)NC(=O)[C@H](C(C)C)NC(=O)[C@@H]2CCCN2C(=O)[C@H](C(C)C)NC(=O)[C@H](CCCNC(=N)N)NC(=O)[C@H](CC(=O)O)NC(=O)[C@@H]2CCCN2C(=O)CN(C)C(=O)[C@H](Cc2ccc(-c3ccccc3)cc2)NC(=O)[C@H](Cc2ccc(-c3cccnc3)cc2)NC(=O)[C@H](CN2CCOCC2)NC(=O)CSC[C@@H](C(=O)NCC(N)=O)NC1=O [Example 88] ({CH2CO}-[Ala(morpholin-4-yl)][Phe(4-(3-Py))][Bip][Sar]PDRVPVRVCG-NH2; thioether N-13),200 to 2000 nM
4,CC(=O)Nc1ccc(-c2ccc(C[C@@H]3NC(=O)[C@H](Cc4ccc(-c5ccccc5)cc4)NC(=O)[C@H](CN4CCOCC4)NC(=O)CSC[C@@H](C(=O)NCC(N)=O)NC(=O)[C@H](C(C)C)NC(=O)[C@H](CCCNC(=N)N)NC(=O)[C@H](C(C)C)NC(=O)[C@@H]4CCCN4C(=O)[C@H](C(C)C)NC(=O)[C@H](CCCNC(=N)N)NC(=O)[C@H](CC(=O)O)NC(=O)[C@@H]4CCCN4C(=O)CN(C)C3=O)cc2)cc1 [Example 89] ({CH2CO}-[Ala(morpholin-4-yl)][Bip][Bip(4'-NHAc)][Sar]PDRVPVRVCG-NH2; thioether N-13),50 to 200 nM
5,CC(C)[C@@H]1NC(=O)[C@H](CCCNC(=N)N)NC(=O)[C@H](C(C)C)NC(=O)[C@@H]2CCCN2C(=O)[C@H](C(C)C)NC(=O)[C@H](CCCNC(=N)N)NC(=O)[C@H](CC(=O)O)NC(=O)[C@@H]2CCCN2C(=O)CN(C)C(=O)[C@H](Cc2ccc(-c3ccc(C(=O)O)cc3)cc2)NC(=O)[C@H](Cc2ccc(-c3ccccc3)cc2)NC(=O)[C@H](CN2CCOCC2)NC(=O)CSC[C@@H](C(=O)NCC(N)=O)NC1=O [Example 90] ({CH2CO}-[Ala(morpholin-4-yl)][Bip][Bip(4'-COOH)][Sar]PDRVPVRVCG-NH2; thioether N-13),50 to 200 nM
6,CC(C)[C@@H]1NC(=O)[C@H](CCCNC(=N)N)NC(=O)[C@H](C(C)C)NC(=O)[C@@H]2CCCN2C(=O)[C@H](C(C)C)NC(=O)[C@H](CCCNC(=N)N)NC(=O)[C@H](CC(=O)O)NC(=O)[C@@H]2CCCN2C(=O)CN(C)C(=O)[C@H](Cc2ccc(-c3ccncc3)cc2)NC(=O)[C@H](Cc2ccc(-c3ccccc3)cc2)NC(=O)[C@H](CN2CCOCC2)NC(=O)CSC[C@@H](C(=O)NCC(N)=O)NC1=O [Example 91] ({CH2CO}-[Ala(morpholin-4-yl)][Bip][Phe(4-(4-pyridyl))][Sar]PDRVPVRVCG-NH2; thioether N-13),200 to 2000 nM
7,CC(C)[C@@H]1NC(=O)[C@H](CCCNC(=N)N)NC(=O)[C@H](C(C)C)NC(=O)[C@@H]2CCCN2C(=O)[C@H](C(C)C)NC(=O)[C@H](CCCNC(=N)N)NC(=O)[C@H](CC(=O)O)NC(=O)[C@@H]2CCCN2C(=O)CN(C)C(=O)[C@H](Cc2ccc(-c3cccnc3)cc2)NC(=O)[C@H](Cc2ccc(-c3ccccc3)cc2)NC(=O)[C@H](CN2CCOCC2)NC(=O)CSC[C@@H](C(=O)NCC(N)=O)NC1=O [Example 92] ({CH2CO}-[Ala(morpholin-4-yl)][Bip][Phe(4-(3-Py))][Sar]PDRVPVRVCG-NH2; thioether N-13),200 to 2000 nM
8,CC(C)C[C@@H]1NC(=O)[C@H](Cc2ccc(O)cc2)NC(=O)[C@H](C(C)C)NC(=O)[C@]2(C)CCN2C(=O)[C@H](C(C)C)NC(=O)[C@H](CCCNC(=N)N)NC(=O)[C@H](CC(=O)O)NC(=O)[C@H](Cc2ccc(O)cc2)NC(=O)CN(C)C(=O)[C@H](Cc2ccc(-c3ccccc3)cc2)NC(=O)[C@H](Cc2ccc(-c3ccccc3)cc2)NC(=O)[C@H](CN2CCOCC2)NC(=O)CSC[C@@H](C(=O)NCC(N)=O)NC1=O [Example 93] ({CH2CO}-[Ala(morpholin-4-yl)][Bip][Bip][Sar]YDRV[X82]VYLCG-NH2; thioether N-13),50 to 200 nM
9,CC(C)C[C@@H]1NC(=O)[C@H](Cc2ccc(O)cc2)NC(=O)[C@H](C(C)C)NC(=O)[C@@H]2CCCN2C(=O)[C@H](C(C)C)NC(=O)[C@H](CCCNC(=N)N)NC(=O)[C@H](CC(=O)O)NC(=O)[C@@H]2C[C@H](c3ccccc3)CN2C(=O)CN(C)C(=O)[C@H](Cc2ccc(-c3ccccc3)cc2)NC(=O)[C@H](Cc2ccc(-c3ccccc3)cc2)NC(=O)[C@H](CN2CCOCC2)NC(=O)CSC[C@@H](C(=O)NCC(N)=O)NC1=O [Example 94] ({CH2CO}-[Ala(morpholin-4-yl)][Bip][Bip][Sar][Pro(cis-4-Ph)]DRVPVYLCG-NH2; thioether N-13),50 to 200 nM
10,CC(C)C[C@@H]1NC(=O)[C@H](Cc2ccc(O)cc2)NC(=O)[C@H](C(C)C)NC(=O)[C@@H]2CCCN2C(=O)[C@H](C(C)C)NC(=O)[C@H](CCCNC(=N)N)NC(=O)[C@H](CC(=O)O)NC(=O)[C@@H]2C[C@@H](c3ccccc3)CN2C(=O)CN(C)C(=O)[C@H](Cc2ccc(-c3ccccc3)cc2)NC(=O)[C@H](Cc2ccc(-c3ccccc3)cc2)NC(=O)[C@H](CN2CCOCC2)NC(=O)CSC[C@@H](C(=O)NCC(N)=O)NC1=O [Example 95] ({CH2CO}-[Ala(morpholin-4-yl)][Bip][Bip][Sar][Pro(trans-4-Ph)]DRVPVYLCG-NH2; thioether N-13),200 to 2000 nM
11,CC(C)C[C@@H]1NC(=O)[C@H](CCCNC(=N)N)NC(=O)[C@H](C(C)C)NC(=O)[C@@H]2CCCN2C(=O)[C@H](C(C)C)NC(=O)[C@H](CCCNC(=N)N)NC(=O)[C@H](CC(=O)O)NC(=O)[C@@H]2C[C@H](c3ccccc3)CN2C(=O)CN(C)C(=O)[C@H](Cc2ccc(-c3ccccc3)cc2)NC(=O)[C@H](Cc2ccc(-c3ccccc3)cc2)NC(=O)[C@H](CN2CCOCC2)NC(=O)CSC[C@@H](C(=O)NCC(N)=O)NC1=O [Example 96] ({CH2CO}-[Ala(morpholin-4-yl)][Bip][Bip][Sar][Pro(cis-4-Ph)]DRVPVRLCG-NH2; thioether N-13),50 to 200 nM
12,CC(C)C[C@@H]1NC(=O)[C@H](CCCNC(=N)N)NC(=O)[C@H](C(C)C)NC(=O)[C@@H]2CCCN2C(=O)[C@H](C(C)C)NC(=O)[C@H](CCCNC(=N)N)NC(=O)[C@H](CC(=O)O)NC(=O)[C@@H]2C[C@@H](c3ccccc3)CN2C(=O)CN(C)C(=O)[C@H](Cc2ccc(-c3ccccc3)cc2)NC(=O)[C@H](Cc2ccc(-c3ccccc3)cc2)NC(=O)[C@H](CN2CCOCC2)NC(=O)CSC[C@@H](C(=O)NCC(N)=O)NC1=O [Example 97] ({CH2CO}-[Ala(morpholin-4-yl)][Bip][Bip][Sar][Pro(trans-4-Ph)]DRVPVRLCG-NH2; thioether N-13),50 to 200 nM
